# Source: PMC2673089 (Journal of pharmaceutical sciences, 2008)
# Tests used:
# rat CYP2C11 = biological target: T1, rat CYP2C11 (Rattus norvegicus, UniProt P08683); test: Metabolism by recombinant rat CYP2C11 Supersomes; assay type: in vitro ADME
# T1 sequence (P08683 1-500): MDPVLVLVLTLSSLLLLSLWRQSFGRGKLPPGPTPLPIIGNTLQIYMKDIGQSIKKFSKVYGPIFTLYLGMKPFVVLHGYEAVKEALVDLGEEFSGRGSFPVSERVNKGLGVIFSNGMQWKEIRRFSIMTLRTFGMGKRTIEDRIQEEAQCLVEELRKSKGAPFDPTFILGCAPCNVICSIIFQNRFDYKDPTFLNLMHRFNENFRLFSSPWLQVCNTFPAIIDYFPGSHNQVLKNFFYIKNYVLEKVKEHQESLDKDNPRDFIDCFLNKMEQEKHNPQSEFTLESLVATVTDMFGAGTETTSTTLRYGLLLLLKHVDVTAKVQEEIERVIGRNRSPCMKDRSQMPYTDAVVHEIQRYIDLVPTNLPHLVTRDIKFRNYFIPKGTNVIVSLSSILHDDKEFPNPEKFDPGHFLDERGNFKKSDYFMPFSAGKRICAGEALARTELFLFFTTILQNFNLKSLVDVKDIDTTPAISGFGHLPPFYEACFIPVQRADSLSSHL
# [1] = system: pooled male Sprague–Dawley rat liver microsomes; test: Metabolism in pooled male rat liver microsomes; assay type: in vitro ADME
# rat CYP3A1 = biological target: T2, rat CYP3A1 (Rattus norvegicus, UniProt P04800); test: Metabolism by recombinant rat CYP3A1 Supersomes; assay type: in vitro ADME
# T2 sequence (P04800 1-504): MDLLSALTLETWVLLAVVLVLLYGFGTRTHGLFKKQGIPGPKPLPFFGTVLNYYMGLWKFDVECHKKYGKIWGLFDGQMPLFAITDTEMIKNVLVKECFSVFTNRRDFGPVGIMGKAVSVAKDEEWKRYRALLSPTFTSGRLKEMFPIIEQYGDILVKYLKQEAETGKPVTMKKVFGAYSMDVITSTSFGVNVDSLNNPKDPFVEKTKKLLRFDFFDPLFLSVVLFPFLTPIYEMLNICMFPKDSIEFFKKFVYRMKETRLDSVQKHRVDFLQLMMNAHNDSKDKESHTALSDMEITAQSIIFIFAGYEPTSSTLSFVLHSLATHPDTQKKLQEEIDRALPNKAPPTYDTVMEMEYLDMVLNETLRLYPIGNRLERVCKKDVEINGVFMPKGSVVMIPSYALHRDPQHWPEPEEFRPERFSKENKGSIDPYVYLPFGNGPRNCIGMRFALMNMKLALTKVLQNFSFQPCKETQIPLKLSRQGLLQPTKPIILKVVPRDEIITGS
# DAT = conditions: read-out: DAT Ki; mean ± SEM; cited from earlier work
# SERT = conditions: read-out: SERT Ki; mean ± SEM; cited from earlier work
smiles,measurement,setting,value
"CC(C)[C@@H](N)CN1C2CCC1CC(OC(c1ccc(F)cc1)c1ccc(F)cc1)C2 (stereo partly drawn) [GA2-50, N-((R)-2″-amino-3″-methyl-n-butyl)-3α-[(bis-4′-fluorophenyl)methoxy]tropane]",Intrinsic Clearance,"rat CYP2C11; Rat CYP 2C11 50 pmol/mL, 4 μM",0.23 ± 0.01 (a) microliters per minute per picomole of P450
same,Substrate disappearance after 60 min incubation vs control,"rat CYP2C11; rat CYP2C11, 10 μM, 50 pmol/mL P450, p < 0.05",statistically significant disappearance
same,"Intrinsic clearance, fold lower than 4′,4″-diCl BZT","rat CYP2C11; rat CYP2C11, comparator values ref 26",6.3 fold
same,Intrinsic Clearance,"[1]; Pooled male RLM 0.8 mg/mL, 4 μM, mean ± SD n = 3",5.96 ± 0.56 microliters per minute per milligram of protein
same,Intrinsic clearance in pooled male RLM relative to HLM,[1]; higher in rat than in human liver microsomes,1.9 fold
same,"Intrinsic clearance, fold lower than 4′,4″-diCl BZT","[1]; pooled male rat liver microsomes, comparator values ref 26",3.6 fold
same,Intrinsic Clearance,"rat CYP3A1; Rat CYP 3A1 50 pmol/mL, 4 μM","0.09 ± 0.02 (c,d) microliters per minute per picomole of P450"
same,Substrate disappearance after 60 min incubation vs control,"rat CYP3A1; rat CYP3A1, 10 μM, 50 pmol/mL P450, p < 0.05",statistically significant disappearance
same,Ki,DAT,0.0564 ± 0.0096 µM
same,Ki,SERT,3.87 ± 0.135 µM
